Measured values published in ChEMBL document CHEMBL4184213, “Essential structure of orexin 1 receptor antagonist YNT-707, Part II: Drastic effect of the 14-hydroxy group on the orexin 1 receptor antagonistic activity” (Bioorg Med Chem Lett, 2018).

How the values were obtained:
[1] = target: T1, Orexin/Hypocretin receptor type 1 (Homo sapiens, UniProt O43613); assay: Antagonist activity at human OX1R expressed in CHOK1 cells assessed as inhibition of orexin A-induced intracellular Ca2+ release preincubated for 15 mins followed by orexin A addition by Fura 2-AM dye based fluorescence assay; type: functional, cell-based
T1 sequence (O43613 whole entry): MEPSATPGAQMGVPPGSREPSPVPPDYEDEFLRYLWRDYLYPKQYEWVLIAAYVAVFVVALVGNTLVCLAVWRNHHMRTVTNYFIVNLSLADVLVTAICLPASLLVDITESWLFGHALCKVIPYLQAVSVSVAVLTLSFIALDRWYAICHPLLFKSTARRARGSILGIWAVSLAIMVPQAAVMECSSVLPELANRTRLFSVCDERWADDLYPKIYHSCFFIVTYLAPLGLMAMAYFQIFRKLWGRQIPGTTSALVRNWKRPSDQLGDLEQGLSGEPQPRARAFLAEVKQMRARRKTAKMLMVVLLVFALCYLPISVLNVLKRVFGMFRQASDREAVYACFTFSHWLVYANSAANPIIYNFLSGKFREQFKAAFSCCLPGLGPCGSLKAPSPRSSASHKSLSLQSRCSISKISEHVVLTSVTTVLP

[2] = target: T2, Orexin receptor type 2 (Homo sapiens, UniProt O43614); assay: Antagonist activity at human OX2R expressed in CHOK1 cells assessed as inhibition of orexin A-induced intracellular Ca2+ release preincubated for 15 mins followed by orexin A addition by Fura 2-AM dye based fluorescence assay; type: functional, cell-based
T2 sequence (O43614 whole entry): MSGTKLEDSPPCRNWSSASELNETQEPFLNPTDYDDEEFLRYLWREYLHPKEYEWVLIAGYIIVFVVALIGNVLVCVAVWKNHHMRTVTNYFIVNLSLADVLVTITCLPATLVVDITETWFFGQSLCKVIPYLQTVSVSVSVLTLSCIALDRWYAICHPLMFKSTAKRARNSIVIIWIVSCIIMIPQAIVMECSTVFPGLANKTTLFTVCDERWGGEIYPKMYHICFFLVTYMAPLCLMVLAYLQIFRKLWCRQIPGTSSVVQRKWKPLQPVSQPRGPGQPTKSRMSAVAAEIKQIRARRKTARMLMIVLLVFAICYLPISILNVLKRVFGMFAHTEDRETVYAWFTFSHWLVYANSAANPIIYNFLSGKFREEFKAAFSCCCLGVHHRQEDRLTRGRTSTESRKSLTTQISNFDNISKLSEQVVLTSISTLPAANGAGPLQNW

COc1ccc2c3c1O[C@H]1[C@H](N(C)C(=O)/C=C/c4ccoc4)CC=C4[C@@H](C2)N(S(=O)(=O)c2ccccc2)CC[C@]431
Ki [1]: 2.06 nM
Ki [2]: > 10000 nM

COc1ccc2c3c1O[C@H]1[C@@H](N(C)C(=O)/C=C/c4ccoc4)CC[C@@]4(O)[C@@H](C2)N(S(=O)(=O)c2ccccc2)CC[C@]314
Ki [2]: > 10000 nM

COc1ccc2c3c1O[C@H]1[C@H](N(C)C(=O)/C=C/c4ccoc4)CC[C@H]4[C@@H](C2)N(S(=O)(=O)c2ccccc2)CC[C@@]341
Ki [1]: 1.97 nM
Ki [2]: > 10000 nM

COc1ccc2c3c1O[C@H]1[C@H](N(C)C(=O)/C=C/c4ccoc4)CC[C@@]4(O)[C@@H](C2)N(S(=O)(=O)c2ccccc2)CC[C@]314
Ki [2]: > 10000 nM

COc1ccc2c3c1O[C@H]1[C@@H](N(C)C(=O)/C=C/c4ccoc4)CC[C@H]4[C@@H](C2)N(S(=O)(=O)c2ccccc2)CC[C@@]341
Ki [1]: 187 nM
Ki [2]: > 10000 nM

COc1ccc2c3c1O[C@H]1[C@@H](N(C)C(=O)/C=C/c4ccoc4)CC=C4[C@@H](C2)N(S(=O)(=O)c2ccccc2)CC[C@]431
Ki [1]: 17.8 nM
Ki [2]: 123 nM
